Converted amounts (≈) assume the structure as drawn. The source made the active and inactive calls. No cut-off for these calls is given here.
Experiments:
HEK293 [1] = test: Ratio of agonist activity at N-terminal HA-tagged mouse TGR5 expressed in HEK293 cells to agonist activity at N-terminal HA-tagged mouse TGR5 H88Y mutant expressed in HEK293 cells; format: cell-based
HEK293 [2] = test: Agonist activity at N-terminal HA-tagged dog TGR5 expressed in HEK293 cells assessed as […] in intracellular cAMP levels incubated for 30 mins by Lance Ultra cAMP assay relative to control; format: cell-based; conditions: Canis lupus familiaris, filed as agonist
Pancreatic islet [3] = test: Stimulation of glucose-induced insulin secretion in pancreatic islets of C57BL/6n mouse harboring TGR5 H88Y mutant at 1 uM incubated for 2 hrs by HTRF method; format: functional, tissue-based
[4] = target: T1, G-protein coupled bile acid receptor 1 (Homo sapiens) (UniProt Q8TDU6); test: Agonist activity at N-terminal HA-tagged human TGR5 expressed in HEK293 cells assessed as […] in intracellular cAMP levels incubated for 30 mins by Lance Ultra cAMP assay relative to control; format: functional, cell-based; conditions: filed as agonist
T1 sequence (whole entry): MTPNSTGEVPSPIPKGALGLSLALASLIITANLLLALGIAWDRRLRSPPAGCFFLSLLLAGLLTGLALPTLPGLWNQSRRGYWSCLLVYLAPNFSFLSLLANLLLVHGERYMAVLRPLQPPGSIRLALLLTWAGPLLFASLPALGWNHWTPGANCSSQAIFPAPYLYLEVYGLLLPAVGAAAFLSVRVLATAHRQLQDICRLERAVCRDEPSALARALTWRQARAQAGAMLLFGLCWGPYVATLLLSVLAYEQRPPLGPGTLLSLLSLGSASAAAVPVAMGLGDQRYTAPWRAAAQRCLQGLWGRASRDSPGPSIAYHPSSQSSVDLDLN

Mus musculus [5] = test: Anti-glycemic activity in fasted C57/BL6 mouse harboring TGR5 H88Y mutant assessed as reduction in plasma glucose at 100 mg/kg administered 30 mins prior to glucose challenge by OGTT; format: functional, organism-based
Mus musculus [6] = test: Anti-glycemic activity in fasted C57BL/6n mouse harboring TGR5 H88Y mutant assessed as increase in serum GLP1 at 100 mg/kg administered 30 mins prior to glucose challenge and measured after 15 mins by ELISA method; format: functional, organism-based
[7] = target: T2, Bile acid receptor (Homo sapiens) (UniProt Q96RI1); test: Agonist activity at human FXR (247 to 467 residues) expressed in HEK293 cells at 100 uM incubated for 8 hrs by luciferase assay; format: cell-based
T2 sequence (whole entry): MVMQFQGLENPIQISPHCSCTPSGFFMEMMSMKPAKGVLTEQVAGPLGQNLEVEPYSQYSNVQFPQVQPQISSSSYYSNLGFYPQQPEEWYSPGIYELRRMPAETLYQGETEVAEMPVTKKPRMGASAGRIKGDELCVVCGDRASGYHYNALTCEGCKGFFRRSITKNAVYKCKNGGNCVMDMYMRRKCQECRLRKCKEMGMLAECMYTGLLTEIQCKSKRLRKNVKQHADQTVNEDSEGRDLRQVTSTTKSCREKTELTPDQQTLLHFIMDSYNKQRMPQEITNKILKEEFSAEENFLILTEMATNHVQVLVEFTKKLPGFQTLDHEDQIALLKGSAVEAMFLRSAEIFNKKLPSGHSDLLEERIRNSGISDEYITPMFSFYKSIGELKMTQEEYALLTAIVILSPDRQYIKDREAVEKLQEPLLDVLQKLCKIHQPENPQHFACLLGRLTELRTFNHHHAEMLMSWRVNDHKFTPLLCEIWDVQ

Mus musculus [8] = test: Anti-glycemic activity in fasted C57BL/6n mouse harboring wild type TGR5 assessed as reduction in plasma glucose at 100 mg/kg administered 30 mins prior to glucose challenge by OGTT; format: functional, organism-based
Pancreatic islet [9] = test: Stimulation of glucose-induced insulin secretion in pancreatic islets of C57BL/6n mouse harboring wild type TGR5 at 1 uM incubated for 2 hrs by HTRF method; format: functional, tissue-based
Mus musculus [10] = test: Anti-glycemic activity in fasted C57BL/6n mouse assessed as increase in serum insulin at 100 mg/kg administered 30 mins prior to glucose challenge and measured after 15 mins by ELISA method; format: functional, organism-based
Mus musculus [11] = test: Anti-glycemic activity in fasted C57BL/6n mouse harboring TGR5 H88Y mutant assessed as increase in serum insulin at 100 mg/kg administered 30 mins prior to glucose challenge and measured after 15 mins by ELISA method; format: functional, organism-based
Mus musculus [12] = test: Anti-glycemic activity in fasted C57BL/6n mouse assessed as increase in serum GLP1 at 100 mg/kg administered 30 mins prior to glucose challenge and measured after 15 mins by ELISA method; format: functional, organism-based
[13] = Apparent permeability in human Caco2 cells across basolateral side to apical side assessed as drug recovery at 10 uM incubated for 95 mins by liquid chromatography-tandem mass spectrometry; format: ADME, cell-based; conditions: Caco-2, read-out: Drug recovery
[14] = Apparent permeability in human Caco2 cells across apical side to basolateral side assessed as drug recovery at 10 uM incubated for 95 mins by liquid chromatography-tandem mass spectrometry; format: ADME, cell-based; conditions: Caco-2, read-out: Drug recovery
[15] = Apparent permeability in human Caco-2 cells across apical side to basolateral side at 10 uM incubated for 95 mins by liquid chromatography-tandem mass spectrometry; format: ADME, cell-based
[16] = Apparent permeability in human Caco-2 cells across basolateral side to apical side at 10 uM incubated for 95 mins by liquid chromatography-tandem mass spectrometry; format: ADME, cell-based
[17] = Efflux ratio in human Caco-2 cells at 10 uM by LC/MS/MS analysis; format: ADME, cell-based
[18] = Aqueous solubility of compound; format: physicochemical; conditions: buffer
[19] = target: T3, G-protein coupled bile acid receptor 1 (Homo sapiens, UniProt Q8TDU6); test: Agonist activity at N-terminal HA-tagged human TGR5 expressed in HEK293 cells assessed as […] in intracellular cAMP levels incubated for 30 mins by Lance Ultra cAMP assay; format: functional, cell-based
T3 sequence (Q8TDU6 whole entry): T1 sequence (whole entry)

[20] = target: T4, G-protein coupled bile acid receptor 1 (Mus musculus, UniProt Q80SS6); test: Agonist activity at N-terminal HA-tagged mouse TGR5 expressed in HEK293 cells assessed as […] in intracellular cAMP levels incubated for 30 mins by Lance Ultra cAMP assay; format: functional, cell-based
T4 sequence (Q80SS6 whole entry): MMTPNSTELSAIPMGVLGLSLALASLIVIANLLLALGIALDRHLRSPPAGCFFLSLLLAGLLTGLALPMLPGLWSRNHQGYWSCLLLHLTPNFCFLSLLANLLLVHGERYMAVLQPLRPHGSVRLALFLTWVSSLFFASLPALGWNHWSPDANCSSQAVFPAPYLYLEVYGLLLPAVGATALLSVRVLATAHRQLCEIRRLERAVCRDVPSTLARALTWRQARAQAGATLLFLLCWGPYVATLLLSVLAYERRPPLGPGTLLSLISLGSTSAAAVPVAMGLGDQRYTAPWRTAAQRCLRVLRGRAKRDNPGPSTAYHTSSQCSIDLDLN

[21] = target: T5, G-protein coupled bile acid receptor 1 (Mus musculus) (UniProt Q80SS6); test: Agonist activity at N-terminal HA-tagged mouse TGR5 expressed in HEK293 cells assessed as […] in intracellular cAMP levels incubated for 30 mins by Lance Ultra cAMP assay relative to control; format: functional, cell-based
T5 sequence (whole entry): T4 sequence (Q80SS6 whole entry)

SMILES	Emax [4] [%]	Activity [7]	recovery at 1.583 h, 10 µM [13] [%]	recovery at 1.583 h, 10 µM [14] [%]	solubility [18] [µM]	EC50 [19] [nM]	Ratio (HEK293 [1])	Activity (HEK293 [2])	Activity (Mus musculus [5])	other results
O=C(c1cccnc1Oc1cc(Cl)ccc1Cl)N1CCCc2ccccc21							4.9	Active		
COc1ccc2cc(CNCCc3ccc(Br)cc3)c(-c3ccsc3)nc2c1							5.6	Active		
C[C@H](O)[C@@H]1CC[C@]2(C(=O)O)CC[C@]3(C)[C@H](CC[C@@H]4[C@@]5(C)CC[C@@H](OC(=O)NC6CC6)C(C)(C)[C@@H]5CC[C@]43C)[C@@H]12 [listing 1 of 2 here]	99	inactive							Active	Activity (Pancreatic islet [3]): Active; Activity (Mus musculus [6]): Active; Activity (Mus musculus [8]): inactive; Activity (Pancreatic islet [9]): Active; Activity (Mus musculus [10]): inactive; Activity (Mus musculus [11]): Active; Activity (Mus musculus [12]): inactive

Second part, led by results:

Emax [4] [%]	Activity [7]	recovery at 1.583 h, 10 µM [13] [%]	recovery at 1.583 h, 10 µM [14] [%]	solubility [18] [µM]	EC50 [19] [nM]	SMILES	Ratio (HEK293 [1])	Activity (HEK293 [2])	Activity (Mus musculus [5])	other results
		85.1	84.6	76300		C[C@H](O)[C@@H]1CC[C@]2(C(=O)[O-])CC[C@]3(C)[C@H](CC[C@@H]4[C@@]5(C)CC[C@@H](OC(=O)NC6CC6)C(C)(C)[C@@H]5CC[C@]43C)[C@@H]12.[Na+]				Papp A→B at 1.583 h, 10 µM [15]: 7.56 ×10⁻⁶ cm/s; Papp B→A at 1.583 h, 10 µM [16]: 2.49 ×10⁻⁶ cm/s; efflux ratio at 10 µM [17]: 0.329
				12.2 (≈ 6.63 µg/mL)	5.07	C[C@H](O)[C@@H]1CC[C@]2(C(=O)O)CC[C@]3(C)[C@H](CC[C@@H]4[C@@]5(C)CC[C@@H](OC(=O)NC6CC6)C(C)(C)[C@@H]5CC[C@]43C)[C@@H]12 [listing 2 of 2 here]				
94	inactive	0	0	0.13 (≈ 0.0687 µg/mL)	83.1	CCCC(=O)O[C@@H]1CC[C@]2(C)[C@H]3CC[C@@H]4[C@H]5[C@H](C(C)C)CC[C@]5(C(=O)O)CC[C@@]4(C)[C@]3(C)CC[C@H]2C1(C)C			inactive	EC50 [20]: 2610 nM; Emax [21]: 22%

From ChEMBL document CHEMBL4837241, “Identification of Betulinic Acid Derivatives as Potent TGR5 Agonists with Antidiabetic Effects via Humanized TGR5H88Y Mutant Mice” (J Med Chem, 2021)
